# Laboratory results reported in US5639887A, “MDR reversal agents” (priority 1995, dated 1997).
# How the values were obtained:
# [1] = system: human epidermoid carcinoma KB/8.5; experiment: In vivo evaluation of MDR-1 reversal agents against human epidermoid carcinoma KB/8.5 implanted SC in athymic nude mice; set-up: species or system human (tumor in athymic nude mice)
# Description: The multiple drug resistant human epidermoid carcinoma KB/8.5 is propagated in medium containing colchicine (10 nanograms/ml) to maintain drug resistance. Colchicine is removed from the medium, for two cell passages, prior to subcutaneous (SC) implant of 8×10^6 KB/8.5 tumor cells into athymic "nude" mice (Harlan Sprague Dawley). […] Individual mouse tumor mass and mean tumor mass for each treatment group is determined on Day +14 and Day +21 of the test period. For each treatment group, the Relative Tumor Growth, RTG, is calculated as follows: [formula]
# Statistical analysis of Log Relative Tumor Growth is carried out using the Student t-test. Transformation of the data from absolute mean tumor mass (mgs tumor mass) to Log Relative Tumor Growth prior to statistical analysis has two beneficial effects:
# 1) it corrects the data for differences in mean tumor mass of the different treatment groups at the start of the test period (Day 0); and
# 2) the Log transformation of the data more adequately reflects the exponential growth pattern of the SC tumors and makes the use of the Student t-test more appropriate.
# [2] = system: vincristine resistant murine leukemia P388/VCR; experiment: In vivo evaluation of MDR-1 reversal agents against vincristine resistant murine leukemia P388/VCR implanted IP in CDF1 mice; details: for % ILS: vs vincristine alone
# Description: Tumor cell ascites are harvested 5-7 days later. For drug testing, groups of 10-15 CDF1 mice (DBA/2×Balb/cF1 hybrids; Charles River Laboratories, Inc) are injected IP with 0.5 ml of diluted ascitic fluid containing 1×10^6 viable P388/VCR tumor cells. […] Drugs are administered once daily, by the IP, intravenous (IV) or oral route, starting one day after tumor implantation and using a variety of treatment schedules. Mice are weighed periodically, survival is recorded for 30 days post tumor implantation, and Mean survival times are calculated for all groups of mice. Statistical analysis of Mean survival times is carried out using the Student t-test.
# [3] = system: bisantrene-resistant human ovarian carcinoma cells S1-B1-20 (OVCAR-3 subclone); experiment: Screening assay for reversal agents: Difference Score with/without 20 μM bisantrene; type: cell-based; details: alone vs with 20 μM bisantrene, 3 days, difference in % cell survival
# Description: Such cells are sorted by a fluorescent activated cell sorter (FACS; Becton Dickinson Model 440).
# Cells, prepared by trypsinization, are plated at 20,000 cells/well in media with and without bisantrene. Then, test agents at varying concentrations are added to the cells. […] Completed plates are incubated for 3 days at 37° C. in a moisturized 7% CO2 atmosphere. […] Dye content/well is read at 540 nm in a microtiter reader. Values are electronically processed, % cell survival compared to untreated cells is computed, and the results are expressed as the difference between these values. Experiments are run in the presence of the test agent alone and the test agent in combination with 20 μM bisantrene. The Difference Score between those two experiments is reported below for 3 different concentrations of test agent.
# [4] = doxorubicin 8 mg/kg IV + compound 25 mg/kg/dose SC at -2 h and +2 h
# [5] = doxorubicin 8 mg/kg IV + compound 75 mg/kg/dose SC at -2 h and +2 h
# [6] = doxorubicin 8 mg/kg IV + compound 200 mg/kg/dose SC at -2 h and +2 h
# [7] = doxorubicin 8 mg/kg IV + compound 200 mg/kg/dose SC x2
# [8] = doxorubicin 8 mg/kg IV + compound […] SC at -2 h and +2 h
# [9] = vincristine 0.2 + compound 6.3 mg/kg, days 1-7, IP
# [10] = doxorubicin 8 mg/kg IV + compound 150 mg/kg/dose SC at -2 h and +2 h
# [11] = vincristine 0.2 + compound 25 mg/kg, days 1-7, IP
# [12] = doxorubicin 8 mg/kg IV + compound 50 mg/kg/dose SC at -2 h and +2 h
# [13] = doxorubicin 8 mg/kg IV + compound 100 mg/kg/dose SC at -2 h and +2 h
# [14] = vincristine 0.2 + compound 25 mg/kg, days 1-5, IP
# [15] = vincristine 0.2 + compound 50 mg/kg, days 1-5, IP
# [16] = vincristine 0.4 + compound 25 mg/kg, days 1-3,6,7, IV
# [17] = vincristine 0.4 + compound 50 mg/kg, days 1-3,6,7, IV
# [18] = vincristine 0.6 + compound 6.3 mg/kg, days 1,5,9, IP
# [19] = vincristine 0.6 + compound 25 mg/kg, days 1,2, IV
# [20] = vincristine 0.6 + compound 25 mg/kg, days 1,5,9, IP
# [21] = vincristine 0.6 + compound 50 mg/kg, days 1,2, IV
# [22] = vincristine 0.8 + compound 25 mg/kg, days 1,2, IV
# [23] = vincristine 0.2 + compound 50 mg/kg, days 1-7, IP
# [24] = vincristine 0.2 + compound 75 mg/kg, days 1-7, IP
# [25] = vincristine 0.2 + compound 100 mg/kg, days 1-7, ORAL
# [26] = vincristine 0.2 + compound 200 mg/kg, days 1-7, ORAL
# [27] = vincristine 0.4 + compound 25.0 mg/kg, days 1-3, IP
# [28] = vincristine 0.4 + compound 50.0 mg/kg, days 1-3, IP
structure (smiles),measurement,setting,value
"COc1ccc(C(CCCCCN2CCc3cc(OC)c(OC)cc3C2)Sc2ccc(C)cc2)cc1OC (stereo not shown) [Example 41, 2-[6-(3,4-Dimethoxyphenvl]-6-[(4-methylphenyl)thio]-hexyl]-1,2,3,4-tetrahydro-6,7-dimethoxyisoquinoline]",Relative Tumor Growth Day 21,[1]; [4],6.15
same,Relative Tumor Growth Day 21,[1]; [5],8.54
same,Relative Tumor Growth Day 21,[1]; [6],4.57
same,"toxicity remark (tox), Day 14",[1]; [7],tox
same,"toxicity remark (tox), Day 21",[1]; [7],tox
same,Relative Tumor Growth Day 21,[1]; [8],7.27
same,MST,[2]; [9],14.1 days
same,% ILS,[2]; [9],+13%
"COc1ccc(C(C#N)(CCCCCN2Cc3cc(OC)c(OC)cc3C2)Sc2ccc(C)cc2)cc1OC (stereo not drawn) [Example 26, α-(3,4-Dimethoxyphenyl)-1,3-dihydro-5,6-dimethoxy-α-[(4-methylphenyl)thio]-2H-isoindole-2-heptanenitrile]",Relative Tumor Growth Day 21,[1]; [5],3.49
same,Relative Tumor Growth Day 14,[1]; [10],Toxic
same,Relative Tumor Growth Day 21,[1]; [10],Toxic
same,Relative Tumor Growth Day 14,[1]; [6],Toxic
same,Relative Tumor Growth Day 21,[1]; [6],Toxic
same,MST,[2]; [9],13.8 days
same,MST,[2]; [11],15.8 days
same,% ILS,[2]; [9],+23%
same,% ILS,[2]; [11],+41%
"COc1ccc(C(C#N)(CCCCCN2Cc3cc(OC)c(OC)cc3C2)SC2CCCCC2)cc1OC.Cl (stereo not drawn) [Example 120, α-(Cyclohexylthio)-α-(3,4-dimethoxyphenyl)-1,3-dihydro 5,6-dimethoxy-2(1H)-isoindoleheptanenitrile hydrochloride]",Difference Score at 1 microM,[3]; test agent 1 microM,83
same,Difference Score at 10 microM,[3]; test agent 10 microM,59
same,Difference Score at 20 microM,[3]; test agent 20 microM,1
"COc1ccc2c(c1)CCN(CCCCCC(Sc1ccc(C)cc1)c1ccc(OC)c(OC)c1)C2 (stereo not shown) [Example 46, 2-[6-(3,4-Dimethoxyphenyl)-6-[(4-methylphenyl)thio]-hexyl]-1,2,3,4-tetrahydro-6-methoxyisoquinoline]",Relative Tumor Growth Day 21,[1]; [4],9.65
same,Relative Tumor Growth Day 21,[1]; [12],8.83
same,Relative Tumor Growth Day 21,[1]; [5],10.23
same,Relative Tumor Growth Day 21,[1]; [13],10.91
same,Relative Tumor Growth Day 21,[1]; [6],8.99
same,MST,[2]; [11],16.7 days
same,% ILS,[2]; [11],+36%
"COc1ccc(C(C#N)(CCN2CCc3cc(OC)c(OC)cc3C2)Sc2ccc(C)cc2)cc1OC (stereo not drawn) [Example 9, α-(3,4-Dimethoxyphenyl)-3,4-dihydro-6,7-dimethoxy-α-[(4-methylphenyl)thio]-2(1H]-isoquinolinebutanenitrile]",MST,[2]; [9],16.4 days
same,% ILS,[2]; [9],+10%
"COc1ccc(C(C#N)(CCCCCN2CCc3cc(OC)c(OC)cc3C2)Sc2ccc(C)cc2)cc1OC (stereo not drawn) [Example 17, α-(3,4-Dimethoxyphenyl)-3,4-dihydro-6,7-dimethoxy-α-[(4-methylphenyl)thio]-2(1H)-isoquinolineheptanenitrile]",Relative Tumor Growth Day 21,[1]; [4],9.55
same,Relative Tumor Growth Day 21,[1]; [10],3.35
same,Relative Tumor Growth Day 21,[1]; [6],5.30
same,Relative Tumor Growth Day 21,[1]; [8],8.58
same,MST,[2]; [14],16.8 days
same,MST,[2]; [15],16.1 days
same,MST,[2]; [16],13.3 days
same,MST,[2]; [17],13.4 days
same,MST,[2]; [18],12.9 days
same,MST,[2]; [19],10.1 days
same,MST,[2]; [20],15.8 days
same,MST,[2]; [21],11.1 days
same,MST,[2]; [22],11.1 days
same,% ILS,[2]; [14],+22%
same,% ILS,[2]; [15],+17%
same,% ILS,[2]; [16],+17%
same,% ILS,[2]; [17],+18%
same,% ILS,[2]; [18],+12%
same,% ILS,[2]; [19],+5%
same,% ILS,[2]; [20],+38%
same,% ILS,[2]; [21],+16%
same,% ILS,[2]; [22],+13%
"COc1ccc(C(C#N)(CCCCCCN2CCc3cc(OC)c(OC)cc3C2)Sc2ccc(C)cc2)cc1OC (stereo not drawn) [Example 37, α-(3.4-Dimethoxyphenyl)-3,4-dihydro-6,7-dimethoxy-α-[(4-methylphenyl)thio]-2(1H)-isoqutnolineoctanenitrile]",MST,[2]; [11],14.7 days
same,% ILS,[2]; [11],+17%
"COC(=O)C(CCCN1CCc2cc(OC)c(OC)cc2C1)(Sc1ccc(C)cc1)c1ccc(OC)c(OC)c1 (stereo not drawn) [Example 12, α-(3,4-Dimethoxyphenyl)-3,4-dihydro-6,7-dimethoxy-α-[(4-methylphenyl)thio]-2(1H)-isoquinolinepentanoic acid methyl ester]",MST,[2]; [11],16.5 days
same,MST,[2]; [23],16.7 days
same,% ILS,[2]; [11],+9%
same,% ILS,[2]; [23],+11%
COc1ccc2c(c1)CCN(CCCCCC(C#N)(Sc1ccc(C)cc1)c1ccc(OC)c(OC)c1)C2 (stereo not shown) [Example 22],MST,[2]; [9],15.2 days
same,% ILS,[2]; [9],+20%
"COc1ccc(C(C#N)(CCCCCCCCCCCN2CCc3cc(OC)c(OC)cc3C2)Sc2ccc(C)cc2)cc1OC (stereo not drawn) [Example 14, α-(3,4-Dimethoxyphenyl)-3,4-dihydro-6,7-dimethoxy α-[(4-methylphenyl)thio]-2(1H)-isoquinoline tridecanenitrile]",Relative Tumor Growth Day 21,[1]; [5],5.86
same,Relative Tumor Growth Day 21,[1]; [6],7.84
same,MST,[2]; [9],14.3 days
same,% ILS,[2]; [9],+14%
"COc1ccc(C(C#N)(CCCCCCCCN2CCc3cc(OC)c(OC)cc3C2)Sc2ccc(C)cc2)cc1OC (stereo not drawn) [Example 20, α-(3,4-Dimethoxyphenyl]-3,4-dihydro-6,7-dimethoxy-α-[(4-methylphenyl)thio]-2(1H)-isoquinolinedecanenitrile]",MST,[2]; [9],13.5 days
same,% ILS,[2]; [9],+8%
"COc1ccc(C(C#N)(CCCN2CCc3cc(OC)c(OC)cc3C2)Sc2ccc(C)cc2)cc1OC (stereo not drawn) [Example 3, α-(3,4-Dimethoxyphenyl)-3,4-dihydro-6,7-dimethoxy-α-[(4-methylphenyl)thio]-2(1H)-isoquinolinepentanenitrile]",Relative Tumor Growth Day 21,[1]; [12],8.38
same,Relative Tumor Growth Day 21,[1]; [13],8.87
same,MST,[2]; [24],16.7 days
same,MST,[2]; [25],15.8 days
same,MST,[2]; [26],16.4 days
same,MST,[2]; [27],15.6 days
same,MST,[2]; [28],16.3 days
same,% ILS,[2]; [24],+21%
same,% ILS,[2]; [25],+15%
same,% ILS,[2]; [26],+20%
same,% ILS,[2]; [27],+10%
same,% ILS,[2]; [28],+15%
"CC[C@]1(O)C[C@H]2CN(CCc3c([nH]c4ccccc34)[C@@](C(=O)OC)(c3cc4c(cc3OC)N(C=O)[C@H]3[C@@](O)(C(=O)OC)[C@H](OC(C)=O)[C@]5(CC)C=CCN6CC[C@]43[C@@H]65)C2)C1 [Vincristine, reference compound]",MST,"[2]; vincristine alone 0.6 mg/kg, days 1,2, IV",9.6 days
same,MST,"[2]; vincristine alone 0.8 mg/kg, days 1,2, IV",9.8 days
